Assay results reported in patent US9833486B2, “Compositions comprising selenium and use of same for the treatment and prevention of disease or conditions associated with mitochondrial dysfunction” (ALLTECH, INC., priority 2013, dated 2017).
Several values for one entry are separate records, joined by “and”; a condition that tells them apart may be missing. Identical values can stand only once. Entries after “also recorded” stand apart in the source; their conditions may differ. *1 amine or outer side, *2 acyl side, *3 side chain or, on linkers, in order; H or OH if unused. Where a SMILES comes first, the peptide text is derived from it. Bridges are numbered along the chain shown (N, C = ends). Roman numbers before positions name the chains, in order. [ ]: non-standard residue; d: D form. γGlu = O=C(O)[C@H](CCC(=O)[*:2])N[*:1]; Sec = N[C@@H](C[SeH])C(=O)O

How the values were obtained:
[1] = Oxygen radical absorbance capacity (ORAC) antioxidant assay; conditions: Trolox Equivalents; singly or in combination
Procedure: Briefly, samples of selenium containing compounds (e.g., identified in Example 1) were analyzed using the Trolox assay kit, according to the manufacturer's instructions. Compounds were tested singly or in combination (at concentrations ranging from 0.05 to 5 μM) to examine for potential synergies, antagonisms or purely additive effects.

[2] = test system: mitochondrial Complex I; assay: Mitochondrial Complex I activity in isolated cortical mitochondria; type: biochemical, rat; conditions: 0, 50, 500, 1000 PPB
Procedure: (§1) In order to measure pyruvate dehydrogenase complex (PDHC) activity as well as mitochondrial Complex I activity, cortical mitochondria were isolated from adult SD rats using a ficoll gradient method. Methylselenoadenosine was tested at four concentration ranges (0, 50, 500 and 1000 PPB). All assays were done in triplicate with co-incubation of the individual compounds with mitochondria (60 μg mitochondrial protein/well) in 100 μl assay system using standard techniques in a 96-well fluorescence plate reader.

[3] = test system: pyruvate dehydrogenase complex (PDHC); assay: PDHC enzyme activity in isolated cortical mitochondria; type: biochemical, rat
Procedure: as §1

[4] = test system: rat brain purified mitochondria; assay: Mitochondrial bioenergetics, oxygen consumption rates (Seahorse flux analyzer); type: biochemical; set-up: key to Trend of effect on mitochondrial bioenergetics: 1: Positive Trend; 2: Positive/Negative trend; 3: Negative Trend; 4: No Change; conditions: for Effect on mitochondrial activity / bioenergetics profile (in words) / STATE III % change / STATE V % change / STATE Vsucc % change: Seahorse; for Effect on mitochondrial activity / bioenergetics profile (in words) / STATE V (State VFCCP, complex I dependent maximum respiratory capacity) / STATE Vsucc (complex II dependent maximum respiratory capacity) / STATE III (OCR, ATP synthesis) / STATE III % change / STATE V % change / STATE Vsucc % change: 500 ppb; for Trend of effect on mitochondrial bioenergetics: Table 7; for STATE V (State VFCCP, complex I dependent maximum respiratory capacity) / STATE Vsucc (complex II dependent maximum respiratory capacity) / STATE III (OCR, ATP synthesis): rat brain purified mitochondria 5 μg/well; for STATE V (State VFCCP, complex I dependent maximum respiratory capacity): CTRL 182.1; for STATE Vsucc (complex II dependent maximum respiratory capacity): CTRL 350.1; for STATE III (OCR, ATP synthesis): CTRL 432.6; for STATE III % change / STATE V % change / STATE Vsucc % change: vs control
Procedure: Mitochondria isolated from rat brain were chosen for this purpose for a number of reasons, including a) the ease with which mitochondria can be isolated from soft tissue, such as brain and b) the fact that brain tissue has a high demand for glucose and oxygen.
Experiments were conducted as follows: a variety of concentrations of selenium containing compounds were tested ranging from low (50 ppb), mid (500 ppb) and high (1 ppm). […] Adult rat brain ficoll purified mitochondria were isolated and incubated with the individual selenium containing compounds for 30 minutes at 37 C prior to being loaded into a Seahorse Biosciences flux analyzer in triplicate. OCR (Oxygen Consumption Rates) parameters were measured in three respiratory states including ATP synthesis (State III), Complex I dependent (NADH-driven) Maximum Respiratory Capacity (State VFCCP) and Complex II (FADH-driven) dependent Maximum Respiratory Capacity (State Vsucc). Sea Horse assay was performed as described (See, e.g., Sauerbeck et al., J Neurosci Methods. 2011 May 15; 198(1): 36-43; Seahorse XF, Seahorse Bioscience Inc).

[5] = test system: Complex IV; assay: Complex IV enzyme activity in isolated cortical mitochondria; type: biochemical, rat; conditions: 0, 50, 500, 1000 PPB
[6] = test system: mitochondria; assay: Mitochondrial respiration by oxytherm (Clark-type electrode); type: biochemical, rat; conditions: 60 μg mitochondrial protein, 500 ppb, 30 minutes
Procedure: The bioactivities of selenium containing peptide LVSe-MR (C22H44N7O5Se) (#6) and methylselenoadenosine (C11H15N5O3Se) (#9) were analyzed utilizing oxytherm (Clark-type electrode) (See, e.g., Chance and Williams, J Biol Chem, 1955, 217, 383-393; Sullivan et al., J. Bioenerg. Biomembr. 36, 353-356.). Oxytherm analysis allows the determination of oxygen uptake or evolution measurements across a broad range of applications including mitochondrial and cellular respiration. For this experiment, 60 μg mitochondrial protein was co-incubated with either compound LVSe-MR (C22H44N7O5Se) or methylselenoadenosine (500 ppb) or their corresponding equivalent concentrations of respective controls (LVMR and methylthioadenosine, respectively) for 30 minutes prior to injection into the oxytherm chamber. Mitochondrial activity (measured and presented as the rate of mitochondrial respiration observed as % change in nmols O2/min/mg of mitochondrial protein) was measured in the presence of each compound.

[7] = test system: mice; assay: Expression of oxidative phosphorylation (OXPHOS) molecules in liver; type: in vivo, mouse
Procedure: Utilizing the animal model described in Example 2, experiments were conducted to analyze the expression of molecules that regulate oxidative phosphorylation (OXPHOS) in the liver of subjects administered a composition comprising selenium.

Compound: Methylselenoadenosine [#9]
- TE Value [1]: 0.722 TE
- Complex I activity (in words) [2]: increased
- PDHC activity (in words) ([3]; 0, 50, 500, 1000 PPB): increased
- enhanced PDHC enzyme activity ([3]; 0-1000 PPB, depending upon the concentration, p<0.05 at 1000 PPB): 30-57%
- Effect on mitochondrial activity / bioenergetics profile (in words) [4]: positive increases in all three states of respiration; also recorded: remarkably increase mitochondrial bioenergetics profiles
- Trend of effect on mitochondrial bioenergetics [4]: #9^1
- STATE V (State VFCCP, complex I dependent maximum respiratory capacity) [4]: 210.3^1
- STATE Vsucc (complex II dependent maximum respiratory capacity) [4]: 437.1^1
- STATE III (OCR, ATP synthesis) [4]: 507.8^1
- STATE III % change [4]: 17.3% and 17.3^1%
- STATE V % change [4]: 15.6% and 15.6^1%
- STATE Vsucc % change [4]: 25% and 24.9^1%
- Complex IV enzyme activity (in words) [5]: No changes
- State III increase compared to control [6]: 29.9%
- State VFCCP increase compared to control [6]: 17.3%
- State Vsucc increase compared to control [6]: 15.3%

Compound: C[Se]CC[C@H](N)C(=O)O [selenomethionine]
- expression of ATP synthase [7]: significant increase
- expression of ATPase inhibitory factor 1 [7]: significantly reduced
- expression of ATPase, H+ transporting lysosomal, V1 subunit H [7]: significantly reduced
- expression of ATPase, H+ transporting, V1 subunit A [7]: significantly reduced
- expression of cytochrome c oxidase, subunit Va [7]: significant increase
- regulation of liver specific mitochondrial activity, compared with selenium enriched yeast [7]: significantly less effective

Compound: N[C@@H](CCC(=O)O)C(=O)N[C@@H](CS)C(=O)O [#30, Glutamylcysteine, reference compound] (H-Glu-Cys-OH)
- Trend of effect on mitochondrial bioenergetics [4]: #30^2
- STATE V (State VFCCP, complex I dependent maximum respiratory capacity) [4]: 153.8
- STATE Vsucc (complex II dependent maximum respiratory capacity) [4]: 305.4
- STATE III (OCR, ATP synthesis) [4]: 423.2
- STATE III % change [4]: −2.3%
- STATE V % change [4]: −15.5%
- STATE Vsucc % change [4]: −12.7%

Compound: N[C@@H](CCC(=O)N[C@@H](C[Se][Se]C[C@H](NC(=O)CC[C@H](N)C(=O)O)C(=O)NCC(=O)O)C(=O)NCC(=O)O)C(=O)O [#8, Selenoglutathione dimer] (I: γGlu-[Sec]-Gly-OH / II: γGlu-[Sec]-Gly-OH; diselenide I:1-II:1)
- Trend of effect on mitochondrial bioenergetics [4]: #8^4
- STATE V (State VFCCP, complex I dependent maximum respiratory capacity) [4]: 192.3
- STATE Vsucc (complex II dependent maximum respiratory capacity) [4]: 371.0
- STATE III (OCR, ATP synthesis) [4]: 424.0
- STATE III % change [4]: −2.1%
- STATE V % change [4]: 5.7%
- STATE Vsucc % change [4]: 6.0%

Compound: C[Se]CC[C@H](N)C(=O)O [#4, L-Selenomethionine]
- TE Value [1]: 1.228 TE

Compound: Glutamylselenocysteine dimer [#10]
- Effect on mitochondrial activity / bioenergetics profile (in words) [4]: negative effect
- Trend of effect on mitochondrial bioenergetics [4]: #10^3
- decreased ATP synthesis (State III) ([4]; decrease vs control): ~19%
- STATE V (State VFCCP, complex I dependent maximum respiratory capacity) [4]: 112.7
- STATE Vsucc (complex II dependent maximum respiratory capacity) [4]: 254.4
- STATE III (OCR, ATP synthesis) [4]: 352.1
- STATE III % change [4]: −18.7%
- STATE V % change [4]: −38.1%
- STATE Vsucc % change [4]: −27.3%
